Reference: US8673888B2, “Depsipeptide for therapy of kidney cancer” (The United States of America, represented by the Secretary, …, priority 2002, dated 2014)

Tests used:
[1] = system: human kidney tumor (RXF-631L); test: Antitumor effect on human renal tumor xenograft (RXF-631L) in nude mice; assay type: in vivo, mouse; details: RXF-631L s.c. xenograft in nude mice; 3.2 and 1.8 mg/kg i.v. q4d×3; FIG. 1
Experimental: A recommended amount of FR901228 was weighed, a solvent (10% HCO-60 (Nihon Surfactant Kogyo K.K./saline) was added and the mixture was ultrasonicated for dissolution. The positive control substance, Taxol, was dissolved in Cremophor EL (SIGMA/ethanol (1:1)) to a concentration of 24 mg/mL before test and preserved in refrigerator. When in use, a 9-fold amount of physiological saline was added to dilute the substance to 2.4 mg/mL (solvent component: 5% Cremophor EL-5% ethanol-90% saline).
For the antitumor activity test of the drug, BALB/cANnNCrj-nu/nu mice (female, 6-week-old) were purchased from Charles River Japan (Yokohama, Japan), and after acclimation for more than 1 week, subjected to the test. The mice were reared in an SPF environment, where free access to water and feed was allowed. […]
Fragments (3×3×3 mm) of RXF-631L tumor were subcutaneously implanted into the right flank of BALB/cANnNCrj-nu/nu mice. […] The tumor volume was calculated from the formula: tumor volume (mm^3)=½×L×W^2 where L and W represent the length and width of the tumor mass, respectively.
The administration was started on the day the mice were grouped (Day 0). […] The liquid amount of administration was calculated based on the body weight measured on the day of administration (0.1 mL/10 g body weight).
The tumor size (length, width) and body weight were measured twice a week from Day 0.

[2] = system: clear cell renal carcinoma; test: Antineoplastic response in a patient with clear cell renal carcinoma (RECIST criteria); assay type: in vivo, human
Experimental: This patient was a person with a history of clear cell renal carcinoma that was diagnosed in 1996. The patient received a total of 10 doses of FR901228: FR901228 was administered at 9.10 mg/m^2 on day 1 and day 5 of the first cycle (21 days), 9.10 mg/m^2 on day 1 of the second cycle (21 days), 9.10 mg/m^2 on day 1 and day 5 of the third cycle (28 days), 9.10 mg/m^2 on day 1 of the fourth cycle (22 days), 12.70 mg/m^2 on day 1 of the fifth cycle (20 days), 17.8 mg/m^2 on day 1 of the sixth cycle (23 days), 17.8 mg/m^2 on day 1 of the seventh cycle (23 days) and 17.8 mg/m^2 on day 1 of the eighth cycle (21 days) by continuous infusion for 4 hours. The treatment effect was evaluated based on the RECIST criteria.

C/C=C1\NC(=O)[C@H]2CSSCC/C=C/[C@H](CC(=O)N[C@H](C(C)C)C(=O)N2)OC(=O)[C@H](C(C)C)NC1=O [FR901228]
growth of human kidney cancer in vivo (tumor size) [1]: suppressed the growth | treatment effect (RECIST criteria) ([2]; one patient, 9.10 mg/m^2 by 4 h continuous infusion, after the first two cycles): partial response | treatment effect (RECIST criteria) ([2]; same patient, 10 doses of 9.10-17.8 mg/m^2, after cycle 8): disease progression
